What all share (format): cell-based, murine
The test system of one data set is RAW264.7 cell. The data set is described as follows: Cell viability assay (MTT). As to conditions: 50 μM to 1000 μM (citronellol to 750 μM), LPS-stimulated, 20 hours.
Data set [1] relates to nitric oxide synthesis in RAW 264.7 cells. The data set can be described thus: Suppression of nitric oxide synthesis (nitrite, Griess reagent) in LPS-stimulated RAW 264.7 cells. As to conditions: Mus musculus, read-out: IC50 (inhibitory concentration at 50%) of nitric oxide synthesis. The procedure:
(§1) The murine macrophage/monocyte RAW 264.7 cells were obtained from the American Type Culture Collection (ATCC) and maintained in Dulbecco's modified Eagle's medium (DMEM) with 10% fetal bovine serum at 37° C. in 5% CO2 humidified air. In this example, cells were plated at a density of 10^6 cells/ml in 96-well plates for 24 hours, and then stimulated with LPS (100 ng/ml) in the presence of different concentrations of butylidene phthalide, citronellol, or geraniol. After 20 hours, the supernatant of the medium was collected and analyzed. In nitric oxide analysis, the concentration of butylidene phthalide was 250 μM, 500 μM, and 1000 μM, the concentration of citronellol was 50 μM, 500 μM, and 750 μM, and the concentration of geraniol was 50 μM, 500 μM, 750 μM, and 1000 μM, separately. In the control group, the cells were not treated with butylidene phthalide, citronellol, or geraniol. Because nitric oxide was unstable, nitrite was detected (Green et al., 1981; Kang et al., 1999a). 80 μl of the culture medium were mixed with an equal volume of Griess reagent (0.1% naphthylethylenediamine dihydrochloride and 1% sulfanilamide in 5% phosphoric acid), and then the absorbance at 550 nm was measured. The nitrite concentration was determined using a curve calibrated on sodium nitrite standards. […] Referring to FIGS. 1a-1c, butylidene phthalide, citronellol, and geraniol can suppress the synthesis of nitric oxide, wherein the suppression ability of citronellol was better than butylidene phthalide or geraniol, separately.
(In general: Nitrite, measured by Griess reagent, commonly stands in for NO production.)

The test system of data set [2] is prostaglandin E2 synthesis in RAW 264.7 cells. The data set is described as follows: Suppression of prostaglandin E2 synthesis (EIA) in LPS-stimulated RAW 264.7 cells. As to conditions: Mus musculus, read-out: IC50 of prostaglandin E2 synthesis. Here is the method:
as §1
The same procedure carried out in Example 1 was repeated with the exception that the detection of the nitric oxide was changed to detect prostaglandin E2 by prostaglandin E2-monoclonal enzyme immunoassay kit (EIA, Cayman Chem., Ann Arbor, Mich.). The concentration of butylidene phthalide was 5 μM, 50 μM, 250 μM, 500 μM, and 1000 μM, the concentration of citronellol was 50 μM, 500 μM, and 750 μM and the concentration of geraniol was 50 μM, 500 μM, and 750 μM, separately. […]

[3] abbreviates: RAW264.7, RAW 264.7 cells, LPS 100 ng/ml, 20 hours, nitrite by Griess reagent.
[4] abbreviates: RAW264.7, RAW 264.7 cells, LPS 100 ng/ml, 20 hours, PGE2 EIA kit.

Read-outs that look alike come from different tables or passages of the source.

With `CCCC=C1OC(=O)c2ccccc21` [butylidene phthalide], the “RAW264.7 cell viability by MTT assay” value in the data set with RAW264.7 cell is “did not affect cell viability”. Besides, the IC50 worked out at 406 µM in data set [1] (RAW264.7, 20 h) and 49.6 µM in data set [2] (RAW264.7, 20 h).
On to `CC(C)=CCCC(C)CCO` (stereo not shown) [citronellol], for which the results for the IC50 in data set [1] (setting [3]) and in data set [2] (setting [4]) were 295 µM and 26.9 µM, respectively.
On to `CC(C)=CCC/C(C)=C/CO` [geraniol], for which the IC50 amounted to 403 µM in data set [1] (setting [3]) and 372 µM in data set [2] (setting [4]).

For the origin of these results see patent US20080268078A1, “Composition for inhibiting nitric oxide and/or prostaglandin E2 synthesis and method for inhibiting inflammation” (Yangsen Biotechnology Co., Ltd., priority 2007, published 2008).
